Laboratory results published in ChEMBL document CHEMBL3044843, “Synthesis of 1,2,3-triazole tethered bifunctional hybrids by click chemistry and their cytotoxic studies” (2013).
Structures can show the parent of a compound that is named as a salt.

Tests used:
Type in all cases: functional
Settings in all cases: read-out: GI
THP-1 [1] = experiment: Growth inhibition of Homo sapiens (human) THP1 cells at 10 uM by SRB assay
COLO 205 [2] = experiment: Growth inhibition of Homo sapiens (human) COLO205 cells at 100 uM by SRB assay
A549 [3] = experiment: Growth inhibition of Homo sapiens (human) A549 cells at 100 uM by SRB assay
A549 [4] = experiment: Growth inhibition of Homo sapiens (human) A549 cells at 10 uM by SRB assay
THP-1 [5] = experiment: Growth inhibition of Homo sapiens (human) THP1 cells at 100 uM by SRB assay
COLO 205 [6] = experiment: Growth inhibition of Homo sapiens (human) COLO205 cells at 10 uM by SRB assay
COLO 205 [7] = experiment: Growth inhibition of Homo sapiens (human) COLO205 cells at 1 uM by SRB assay

Structure (SMILES) | inhibition of growth at 10 µM (THP-1 [1]) [%] | inhibition of growth at 100 µM (COLO 205 [2]) [%] | inhibition of growth at 100 µM (A549 [3]) [%] | inhibition of growth at 10 µM (A549 [4]) [%] | inhibition of growth at 100 µM (THP-1 [5]) [%] | inhibition of growth at 10 µM (COLO 205 [6]) [%] | inhibition of growth at 1 µM (COLO 205 [7]) [%]
COc1cc(C2CC(c3ccc([N+](=O)[O-])cc3)=NN2C(C)=O)ccc1OCc1cn(Cc2ccc([N+](=O)[O-])cc2)nn1 (stereo not given) | 7 | 85 | 72 | 39 | 59 | 33 | –
COc1cc(C2CC(c3cc(OC)c(OC)c(OC)c3)=NN2C(C)=O)ccc1OCc1cn(Cc2ccc([N+](=O)[O-])cc2)nn1 (stereo not given) | 29 | 99 | 85 | 68 | 43 | 60 | –
COc1ccc(C2CC(c3ccc(OCc4cn(Cc5ccc([N+](=O)[O-])cc5)nn4)cc3)=NN2C(C)=O)cc1 (stereo not given) | 15 | 37 | 33 | 26 | 26 | 4 | –
COc1ccc(C2CC(c3ccc(OCc4cn(Cc5ccc([N+](=O)[O-])cc5)nn4)cc3)=NN2C(C)=O)cc1OC (stereo not given) | 8 | 38 | 36 | 11 | 9 | 9 | –
COc1cc(C2CC(c3ccccc3)=NN2C(C)=O)ccc1OCc1cn(Cc2ccc([N+](=O)[O-])cc2)nn1 (stereo not given) | 0 | 11 | 11 | 0 | 10 | 7 | –
COc1cc(C2CC(c3ccc(OCc4cn(Cc5ccc([N+](=O)[O-])cc5)nn4)cc3)=NN2C(C)=O)ccc1OCc1cn(Cc2ccc([N+](=O)[O-])cc2)nn1 (stereo not given) | 0 | 51 | 42 | 29 | 15 | 27 | –
COc1cc(C2CC(c3cccc4ccccc34)=NN2C(C)=O)ccc1OCc1cn(Cc2ccc([N+](=O)[O-])cc2)nn1 (stereo not given) | 10 | 72 | 95 | 89 | 79 | 46 | –
CC(=O)N1N=C(c2ccc(OCc3cn(Cc4ccc([N+](=O)[O-])cc4)nn3)cc2)CC1c1ccccc1 (stereo not given) | 0 | 55 | 80 | 15 | 22 | 18 | –
COc1cc(C2CC(c3ccc(Br)cc3)=NN2C(C)=O)ccc1OCc1cn(Cc2ccc([N+](=O)[O-])cc2)nn1 (stereo not given) | 1 | 47 | 17 | 0 | 23 | 26 | –
COc1cc(C2CC(c3ccc(Cl)cc3)=NN2C(C)=O)ccc1OCc1cn(Cc2ccc([N+](=O)[O-])cc2)nn1 (stereo not given) | 17 | 10 | 0 | 0 | 37 | 0 | –
COc1ccc(C2=NN(C(C)=O)C(c3ccc(OCc4cn(Cc5ccc([N+](=O)[O-])cc5)nn4)c(OC)c3)C2)cc1 (stereo not given) | 8 | 75 | 84 | 43 | 14 | 10 | –
COc1cccc2c1C(=O)c1c(O)c3c(c(O)c1C2=O)C[C@@](O)(C(=O)CO)C[C@@H]3O[C@H]1C[C@H](N)[C@H](O)[C@H](C)O1 [DOXORUBICIN HYDROCHLORIDE] | – | – | – | – | – | – | 72
CO[C@@]12[C@H](COC(N)=O)C3=C(C(=O)C(C)=C(N)C3=O)N1C[C@@H]1N[C@@H]12 [MITOMYCIN] | 65 | – | – | – | – | – | –
CC(=O)O[C@H]1C(=O)[C@@]2(C)[C@H]([C@H](OC(=O)c3ccccc3)[C@]3(O)C[C@H](OC(=O)[C@H](O)[C@@H](NC(=O)c4ccccc4)c4ccccc4)C(C)=C1C3(C)C)[C@]1(OC(C)=O)CO[C@@H]1C[C@@H]2O [PACLITAXEL] | 62 | – | – | 59 | – | – | –
